Reference: article PMC8037182, “Solvothermal Synthesis of Multiple Dihydropyrimidinones at a Time as Inhibitors of Eg5” (Molecules, 2021)

What was measured:
[1] = test system: Caco-2 cell line; test: Cytotoxicity MTS assay, Caco-2 cell line; format: cell-based; conditions: for OD490 Mean / OD490 Well 1 / OD490 Well 2 / OD490 Well 3: Caco-2 cell line
Method in brief: (§1)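 Cells seeded at 1000 per well, grown 24 h, then exposed to compound (0.5–100 µM final) for 24 h with 0.025% DMSO blank. MTS reagent added for 2 h at 37 °C, absorbance read at 490 nm; IC50 from non-linear regression of % viability versus concentration, three independent duplicate experiments.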

[2] = test system: Hela cell line; test: Cytotoxicity MTS assay, Hela cell line; format: cell-based; conditions: for OD490 value, Mean / OD490 value, Well 1 / OD490 value, Well 2 / OD490 value, Well 3: Hela cell line, MTS;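 as to OD490 value, Mean: blank control wells received 0.025% DMSO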;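 as to OD490 value, Well 1: blank control wells received 0.025% DMSO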;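 as to OD490 value, Well 2: blank control wells received 0.025% DMSO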;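 as to OD490 value, Well 3: blank control wells received 0.025% DMSO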
Method in brief: as §1

CCOC(=O)c1[nH]c(C2NC(=O)NC(C)=C2C(=O)Nc2ccccc2C)c(C(=O)OC)c1C (centres unmarked) [D4]
OD490 Mean ([1]; 0.5μM, first assay): 0.5704
OD490 Well 1 ([1]; 0.5μM, first assay): 0.5884
OD490 Well 2 ([1]; 0.5μM, first assay): 0.5582
OD490 Well 3 ([1]; 0.5μM, first assay): 0.5647
OD490 Mean ([1]; 0.5μM, second assay): 0.5955
OD490 Well 1 ([1]; 0.5μM, second assay): 0.5407
OD490 Well 2 ([1]; 0.5μM, second assay): 0.6416
OD490 Well 3 ([1]; 0.5μM, second assay): 0.6041
OD490 Mean ([1]; 0.5μM, third assay): 0.6609
OD490 Well 1 ([1]; 0.5μM, third assay): 0.6698
OD490 Well 2 ([1]; 0.5μM, third assay): 0.6201
OD490 Well 3 ([1]; 0.5μM, third assay): 0.6928
OD490 Mean ([1]; 1μM, first assay): 0.5753
OD490 Well 1 ([1]; 1μM, first assay): 0.5948
OD490 Well 2 ([1]; 1μM, first assay): 0.5673
OD490 Well 3 ([1]; 1μM, first assay): 0.5637
OD490 Mean ([1]; 1μM, second assay): 0.6402
OD490 Well 1 ([1]; 1μM, second assay): 0.6433
OD490 Well 2 ([1]; 1μM, second assay): 0.6589
OD490 Well 3 ([1]; 1μM, second assay): 0.6185
OD490 Mean ([1]; 1μM, third assay): 0.6218
OD490 Well 1 ([1]; 1μM, third assay): 0.6635
OD490 Well 2 ([1]; 1μM, third assay): 0.6890
OD490 Well 3 ([1]; 1μM, third assay): 0.5129
OD490 Mean ([1]; 10μM, first assay): 0.5338
OD490 Well 1 ([1]; 10μM, first assay): 0.5500
OD490 Well 2 ([1]; 10μM, first assay): 0.5282
OD490 Well 3 ([1]; 10μM, first assay): 0.5233
OD490 Mean ([1]; 10μM, second assay): 0.5742
OD490 Well 1 ([1]; 10μM, second assay): 0.5277
OD490 Well 2 ([1]; 10μM, second assay): 0.6414
OD490 Well 3 ([1]; 10μM, second assay): 0.5536
OD490 Mean ([1]; 10μM, third assay): 0.5630
OD490 Well 1 ([1]; 10μM, third assay): 0.5899
OD490 Well 2 ([1]; 10μM, third assay): 0.5614
OD490 Well 3 ([1]; 10μM, third assay): 0.5377
OD490 Mean ([1]; 25μM, first assay): 0.5869
OD490 Well 1 ([1]; 25μM, first assay): 0.5783
OD490 Well 2 ([1]; 25μM, first assay): 0.5766
OD490 Well 3 ([1]; 25μM, first assay): 0.6058
OD490 Mean ([1]; 25μM, second assay): 0.5033
OD490 Well 1 ([1]; 25μM, second assay): 0.5352
OD490 Well 2 ([1]; 25μM, second assay): 0.4777
OD490 Well 3 ([1]; 25μM, second assay): 0.4969
OD490 Mean ([1]; 25μM, third assay): 0.5111
OD490 Well 1 ([1]; 25μM, third assay): 0.5123
OD490 Well 2 ([1]; 25μM, third assay): 0.4876
OD490 Well 3 ([1]; 25μM, third assay): 0.5333
OD490 Mean ([1]; 50μM, first assay): 0.5039
OD490 Well 1 ([1]; 50μM, first assay): 0.4576
OD490 Well 2 ([1]; 50μM, first assay): 0.5055
OD490 Well 3 ([1]; 50μM, first assay): 0.5485
OD490 Mean ([1]; 50μM, second assay): 0.4399
OD490 Well 1 ([1]; 50μM, second assay): 0.41
OD490 Well 2 ([1]; 50μM, second assay): 0.4612
OD490 Well 3 ([1]; 50μM, second assay): 0.4486
OD490 Mean ([1]; 50μM, third assay): 0.4077
OD490 Well 1 ([1]; 50μM, third assay): 0.4412
OD490 Well 2 ([1]; 50μM, third assay): 0.4698
OD490 Well 3 ([1]; 50μM, third assay): 0.3120
OD490 Mean ([1]; 100μM, first assay): 0.3850
OD490 Well 1 ([1]; 100μM, first assay): 0.4202
OD490 Well 2 ([1]; 100μM, first assay): 0.3796
OD490 Well 3 ([1]; 100μM, first assay): 0.3553
OD490 Mean ([1]; 100μM, second assay): 0.3934
OD490 Well 1 ([1]; 100μM, second assay): 0.4418
OD490 Well 2 ([1]; 100μM, second assay): 0.3643
OD490 Well 3 ([1]; 100μM, second assay): 0.3741
OD490 Mean ([1]; 100μM, third assay): 0.4011
OD490 Well 1 ([1]; 100μM, third assay): 0.3698
OD490 Well 2 ([1]; 100μM, third assay): 0.4013
OD490 Well 3 ([1]; 100μM, third assay): 0.4321
IC50 ([1]; MTS assay, 24 h exposure): 80.5 µM
OD490 value, Mean ([2]; 0.5μM, first assay): 2.5619
OD490 value, Well 1 ([2]; 0.5μM, first assay): 2.3169
OD490 value, Well 2 ([2]; 0.5μM, first assay): 2.6787
OD490 value, Well 3 ([2]; 0.5μM, first assay): 2.6902
OD490 value, Mean ([2]; 0.5μM, second assay): 2.6585
OD490 value, Well 1 ([2]; 0.5μM, second assay): 2.7756
OD490 value, Well 2 ([2]; 0.5μM, second assay): 2.2036
OD490 value, Well 3 ([2]; 0.5μM, second assay): 2.9963
OD490 value, Mean ([2]; 0.5μM, third assay): 2.6298
OD490 value, Well 1 ([2]; 0.5μM, third assay): 2.6541
OD490 value, Well 2 ([2]; 0.5μM, third assay): 2.5689
OD490 value, Well 3 ([2]; 0.5μM, third assay): 2.6665
OD490 value, Mean ([2]; 1μM, first assay): 2.4999
OD490 value, Well 1 ([2]; 1μM, first assay): 2.4427
OD490 value, Well 2 ([2]; 1μM, first assay): 2.5466
OD490 value, Well 3 ([2]; 1μM, first assay): 2.5103
OD490 value, Mean ([2]; 1μM, second assay): 2.6707
OD490 value, Well 1 ([2]; 1μM, second assay): 2.6654
OD490 value, Well 2 ([2]; 1μM, second assay): 2.6879
OD490 value, Well 3 ([2]; 1μM, second assay): 2.6588
OD490 value, Mean ([2]; 1μM, third assay): 2.5654
OD490 value, Well 1 ([2]; 1μM, third assay): 2.6540
OD490 value, Well 2 ([2]; 1μM, third assay): 2.5421
OD490 value, Well 3 ([2]; 1μM, third assay): 2.5000
OD490 value, Mean ([2]; 10μM, first assay): 2.7063
OD490 value, Well 1 ([2]; 10μM, first assay): 2.6331
OD490 value, Well 2 ([2]; 10μM, first assay): 2.7562
OD490 value, Well 3 ([2]; 10μM, first assay): 2.7295
OD490 value, Mean ([2]; 10μM, second assay): 2.7726
OD490 value, Well 1 ([2]; 10μM, second assay): 2.6985
OD490 value, Well 2 ([2]; 10μM, second assay): 2.7856
OD490 value, Well 3 ([2]; 10μM, second assay): 2.8336
OD490 value, Mean ([2]; 10μM, third assay): 2.5863
OD490 value, Well 1 ([2]; 10μM, third assay): 2.3545
OD490 value, Well 2 ([2]; 10μM, third assay): 2.7454
OD490 value, Well 3 ([2]; 10μM, third assay): 2.6589
OD490 value, Mean ([2]; 25μM, first assay): 2.5844
OD490 value, Well 1 ([2]; 25μM, first assay): 2.5014
OD490 value, Well 2 ([2]; 25μM, first assay): 2.5977
OD490 value, Well 3 ([2]; 25μM, first assay): 2.6541
OD490 value, Mean ([2]; 25μM, second assay): 2.6351
OD490 value, Well 1 ([2]; 25μM, second assay): 2.6354
OD490 value, Well 2 ([2]; 25μM, second assay): 2.6289
OD490 value, Well 3 ([2]; 25μM, second assay): 2.6410
OD490 value, Mean ([2]; 25μM, third assay): 2.6063
OD490 value, Well 1 ([2]; 25μM, third assay): 2.5658
OD490 value, Well 2 ([2]; 25μM, third assay): 2.6542
OD490 value, Well 3 ([2]; 25μM, third assay): 2.5988
OD490 value, Mean ([2]; 50μM, first assay): 2.4897
OD490 value, Well 1 ([2]; 50μM, first assay): 2.2013
OD490 value, Well 2 ([2]; 50μM, first assay): 2.5633
OD490 value, Well 3 ([2]; 50μM, first assay): 2.7046
OD490 value, Mean ([2]; 50μM, second assay): 2.4794
OD490 value, Well 1 ([2]; 50μM, second assay): 2.5532
OD490 value, Well 2 ([2]; 50μM, second assay): 2.4198
OD490 value, Well 3 ([2]; 50μM, second assay): 2.4652
OD490 value, Mean ([2]; 50μM, third assay): 2.5366
OD490 value, Well 1 ([2]; 50μM, third assay): 2.4650
OD490 value, Well 2 ([2]; 50μM, third assay): 2.5462
OD490 value, Well 3 ([2]; 50μM, third assay): 2.5985
OD490 value, Mean ([2]; 100μM, first assay): 1.9103
OD490 value, Well 1 ([2]; 100μM, first assay): 1.9024
OD490 value, Well 2 ([2]; 100μM, first assay): 1.9524
OD490 value, Well 3 ([2]; 100μM, first assay): 1.8761
OD490 value, Mean ([2]; 100μM, second assay): 2.0041
OD490 value, Well 1 ([2]; 100μM, second assay): 2.0124
OD490 value, Well 2 ([2]; 100μM, second assay): 2.0036
OD490 value, Well 3 ([2]; 100μM, second assay): 1.9963
OD490 value, Mean ([2]; 100μM, third assay): 1.9351
OD490 value, Well 1 ([2]; 100μM, third assay): 1.8989
OD490 value, Well 2 ([2]; 100μM, third assay): 1.9478
OD490 value, Well 3 ([2]; 100μM, third assay): 1.9587
IC50 ([2]; MTS assay, 24 h exposure): > 150 µM
